Source: patent US12486255B2, “Modulators of RAS GTPase” (Tosk, Inc., priority 2018, dated 2025)
Where two headings read alike, the source gives them in different places.

Experiments:
[1] = Pharmacokinetic study in mice; assay type: in vivo; conditions: ip, 10 mg/kg, CD-1 mice, 10 mg/kg; for Vd/F: CD-1, mouse, read-out: Vz/F
Method: Pharmacokinetic studies were carried out using 10 weeks old CD-1 mice. Structure 2 and Structure 3 were injected ip, 3 mg/kg and 10 mg/kg, respectively, at 8 time points (0, 0.25, 0.5, 1, 2, 4, 8 and 24 hours post-dose). Blood was collected from 3 animals/time point and concentrations of Structure 2 in plasma determined using LC/MS.

[2] = Multi-day safety study in mice; assay type: in vivo; conditions: female CD1 mice, 10 mg/kg ip daily for 6 days
Method: The multi-day safety study used female, 10 week old, CD1 mice (4/treatment group) dosed with DMSO. Mice were administered 2 mg/kg of Structure 2 or 10 mg/kg Structure 3, ip, daily for 6 days and evaluated for changes clinical chemistry values, hematology values and animal weight as well as signs of health and grooming habits.
Heparinized blood samples were obtained by retro-orbital puncture on Day 6, 12 hours after the last dose of Structure 2. The plasma harvested from the blood was analyzed for standard clinical chemistry parameters (ALB. ALP, ALT, AMY, TBIL, BUN, CA, PHOS, CRE GLU, NA, K, TP & GLOB) and hematology (WBC, LYM, MON, GRA, RBC, HGB, HCT, MCV, MCH, MCHC, RDWc, PLT, PCT, MPV, PDWc) analytes (see definitions herein). Animal weight changes were also monitored. Values for all analytes were analyzed by one way ANOVA plus post-hoc Bonferroni using SPSS (IBM, Armonk, NY).

[3] = test system: flies expressing G12V in their wing; experiment: Fly assay, wing phenotype reversal; assay type: in vivo, Drosophila
Source text: Each wing from mutant flies receiving treatment with either water or compound received a score from two independent scorers according to the scheme outlined in the schematic. The analysis of the scores given to the compound group was compared to the scores given for the control (water) group.
Embryo preparation. GAL4 virgin ♀ were collected over a period of 3-5 days, then crossed with kRAS G12V (3M) ♂ inside a plastic condo supplied with grape agar containing yeast paste. Flies were acclimated for 2 days and embryos present after a span of 4-5 hours were collected along with the agar plate and incubated for 24 hours. The next day, embryos were washed off the agar plate with Embryo Wash solution (120 mM NaCl, 0.03% Triton X) and resuspended in Embryo Inoculation solution (120 mM NaCl, 420 mM Sucrose, 0.05% Triton X-100). Embryos were counted and diluted to 15 embryos/10 μL. 150 embryos (100 μL) were dispensed into each vial.
Food-drug admix preparation. Each fly vial contains 1.5 g of fly food in 4 ml water. The quantity of drug needed is calculated for a total of 4 vials, each vial containing 10 μM of Structure 2. This is equivalent to 0.014 mg of Structure 2/vial, for a total of 0.056 mg of Structure 2.
A stock solution of 0.1 mg/mL Structure 2 in ethanol is prepared. A 500-ml round bottom flask is charged with 6 g of fly food (1.5 g×4), to which is added 20 mL of ethanol, ensuring that the food is entirely covered in solvent. To this heterogeneous solution is added an appropriate amount of Structure 2 stock solution, containing the calculated required quantity, in this case 0.56 mL stock solution.
The ethanol is evaporated under reduced pressure via a rotary evaporator equipped with a bump trap. The resulting dry food is added to three vials, each containing 1.5 g, so that the experiment is performed in triplicate. The quantity is calculated initially for 4 vials, because some food will be stuck to the walls of the round bottom flask and some is also invariably lost in the bump trap during the solvent evaporation step. Control vials lacking Structure 2 or Structure 3 are also analyzed and undergo the exact same food preparation and solvent extraction procedure.
Embryo addition to vials. After all the food-drug admix is prepared and added to the respective vials, to each vial is added 4 mL of water and the vial briefly vortexed. To this liquid mixture is added the embryo solution (100 μL), the vials capped and placed in an incubator or fly room.
Wing mounting and scoring. Flies hatch 10-12 days after the above experimental setup is performed. The resulting adult flies are submerged in a 3:1 70% ethanol:glycerol solution for 24 hours, then wings are dissected with curved Vannas spring scissors (FST #15001-08). The wings are mounted in an 80% glycerol solution on a microscope slide under coverslip seal.
Pictures of the wings were taken using an Accu-Scope microscope equipped with a digital camera and connected to a laptop containing the Accu-Scope Micrometric SE Premium software. The wings were scored according to the following scoring tree:
Wing score analysis. After each wing received a score from two independent scorers, the analysis of the scores given to the Structure 2 and 3 groups was compared to the scores given for the control group and was performed using the IBM SPSS software.
Wings that received a score of 3 or above are considered “reversed”, since their phenotype is closer to WT than to kRAS G12V bearing Drosophila. The findings are plotted in FIG. 9. […]

[4] = test system: phosphorylated ERK 1/2 (T202/Y204); experiment: Phosphorylated ERK bioassay (Western blot, SW480 cells); assay type: cell-based, human; conditions: 3 μM, 24 hours, in the presence of serum
Method: As described herein, the main downstream target for kRAS is ERK (Samatar et al., Targeting RAS-ERK signaling in cancer: promises and challenges. Nat Rev Drug Discov. 2014; 13:928-42). kRAS activates ERK leading to phosphorylated ERK. A compound that suppresses kRAS activity is expected to lower phosphorylated ERK.
Test articles abrogate the expression of phosphorylated ERK (T202/Y204) SW480 cells were subjected to test article incubation at 3 μM for 24 hours in the presence of serum to mimic natural growth environment. Cells were extracted and total protein of samples normalized through BCA assay. Processed extracts were subjected to SDS-PAGE/Western blot and blotted for phosphorylated ERK 1/2 (T202/Y204); ERK 1/2; and α-Tubulin.
The compound U0126 in FIG. 8 is a MEK inhibitor which is known to suppress phosphorylation of ERK. The compound was tested along with the test articles to serve as a positive control.

c1ccc(-n2cc(CN3CCN(c4ncnc5ccccc45)CC3)cn2)cc1 [Structure 3, 4-(4-((1-phenyl-1H-pyrazol-4-yl)methyl)piperazin-1-yl)quinazoline]
Vd/F ([1]; plasma, plasma): 3.19 L/kg
Vd/F ([1]; plasma, plasma, text statement): > 3 L/kg
mean resident times (MRT) [1]: approximately one to two
AUCINF ([1]; plasma): 4.12 (Microgram * Hour)/mL
AUC_%Extrap ([1]; plasma): 4.92%
AUClast ([1]; plasma): 3.92 (Microgram * Hour)/mL
CI/F ([1]; plasma): 4.04 mL/min/kg
Concentrationmax ([1]; plasma): 3.38 Microgram/mL
Lambda_z ([1]; plasma): 0.76 h⁻¹
MRTINF ([1]; plasma): 1.25 h
MRTlast ([1]; plasma): 1.03 h
Timelast ([1]; plasma): 4.00 h
concentration at 4 Hour ([1]; mouse, plasma, read-out: Concentrationlast): 150 ng/mL
body weight or grooming habits versus dosing vehicle treated animals [2]: no statistically significant difference
clinical chemistry changes versus dosing vehicle treated animals [2]: no significant clinical chemistry changes
ALB ([2]; Day 6): 4.0 ± 0.10 g/dL
ALP ([2]; Day 6): 106.3 ± 21.40 U/L
ALT ([2]; Day 6): 77.3 ± 16.30 U/L
AMY ([2]; Day 6): 932.0 ± 98.90 U/L
BUN ([2]; Day 6): 22.0 ± 5.40 mg/dL
CRE ([2]; Day 6): <0.40 mg/dL
Ca^++ ([2]; Day 6): 9.7 ± 0.10 mg/dL
GLOB ([2]; Day 6): 1.2 ± 0.10 g/dL
GLU ([2]; Day 6): 309.0 ± 45.10 mg/dL
GRA ([2]; Day 6): 0.4 ± 0.20 10^9/l
GRA (%) ([2]; Day 6): 7.0 ± 3.00%
HCT ([2]; Day 6): 43.1 ± 1.80%
HGB ([2]; Day 6): 14.1 ± 0.50 g/dL
K^+ ([2]; Day 6): 4.6 ± 0.20 mmol/L
LYM ([2]; Day 6): 4.6 ± 1.40 10^9/l
LYM (%) ([2]; Day 6): 90.0 ± 4.30%
MCH ([2]; Day 6): 16.0 ± 0.70 pg
MCHC ([2]; Day 6): 32.7 ± 2.50 g/dL
MCV ([2]; Day 6): 49.3 ± 4.30 fL
MON ([2]; Day 6): 0.2 ± 0.20 10^9/l
MON (%) ([2]; Day 6): 3.1 ± 2.00%
MPV ([2]; Day 6): 6.7 ± 0.40 fL
NA^+ ([2]; Day 6): 147.8 ± 2.20 mmol/L
PCT ([2]; Day 6): 0.4 ± 0.10%
PDWc ([2]; Day 6): 30.0 ± 1.50%
PHOS ([2]; Day 6): 9.8 ± 0.40 mg/dL
PLT ([2]; Day 6): 578.8 ± 86.70 10^9/l
RBC ([2]; Day 6): 8.8 ± 0.50 10^12/l
RDWc ([2]; Day 6): 17.4 ± 0.70%
TBIL ([2]; Day 6): 0.4 ± 0.00 mg/dL
TP ([2]; Day 6): 5.2 ± 0.20 g/dL
WBC ([2]; Day 6): 5.2 ± 1.80 10^9/l
wing scores compared to the control group ([3]; Tukey HSD and LSD p<0.001, Mann Whitney p=0.002): significantly different from the control group
Reversal Phenotype (%) ([3]; wings with score of 3 or above, Structure 2 at 10 μmolar, control 8.27): 16%
phosphorylated ERK (T202/Y204) [4]: dramatically decrease phosphorylated ERK
